Data as given in patent US20220401374A1, “COMPOSITIONS AND METHODS FOR CANCER TREATMENT BY ENHANCING ANTITUMOR IMMUNITY USING TANNIC ACID-BASED NANOCAPSULES” (Purdue Research Foundation, priority 2019, published 2022).

Legend:
plasma protein = settings: cited from earlier work
BMDCs [1] = experiment: Phagocytosis of pretreated DiI-labeled B16F10 cells by BMDCs; assay type: cell-based, C57BL/6 mice
B16F10 cells = experiment: Cytotoxicity by MTT assay in B16F10 cells; assay type: cell-based, murine; settings: 24 h total
Protocol: Bolus-pulse: Cells were incubated with CFZ-DMSO at different CFZ concentrations for 2.4 h then washed and incubated in drug-free medium for additional 21.6 h making the total incubation time of 24 h. Low-extended: Cells were incubated with at 1/10th CFZ concentrations for 24 h. Cell viability was measured by the MTT assay at the end of 24 h. % cell viability was calculated by normalizing to the viability of control cells treated with the equivalent amount of vehicle for the same period of time.
B16F10 (derived from murine melanoma; ATCC, Manassas, Va., USA) or HCC-1937 (derived from human triple negative breast cancer; ATCC, Manassas, Va., USA) were grown in RPMI 1640 or DMEM medium, respectively, supplemented with 10% FBS and penicillin (100 IU/mL) and streptomycin (100 μg/mL). Cells were seeded in a 96 well plate at a density of 4,000 cells per well. After 24 h incubation, the culture medium was replaced with fresh medium containing CFZ (as a stock solution in DMSO), CFZ-pTA or CFZ-pTA-alb. […] The stop/solubilizing solution was added to dissolve formazan crystals, and the absorbance was read at the wavelength of 562 nm by the SpectraMax M3 microplate reader.

[2] = test system: splenocytes from C57BL/6 mice; experiment: Cytotoxicity of CFZ on splenocytes, bolus-pulse vs low-extended; assay type: cell-based; settings: 24 h total
Protocol: To estimate whether the sustained supply of CFZ is beneficial to sparing immune cells in the tumor microenvironment, we tested the cytotoxic effect of CFZ on splenocytes in two treatment regimens (FIG. 3A): a pulse treatment of bolus dose (bolus-pulse) and an extended treatment of low dose (low-extended), where bolus-pulse indicates incubation of cells in different CFZ concentrations for 2.4 h followed by washout and incubation in drug-free medium for additional 21.6 h making the total incubation time of 24 h, and low-extended indicates incubating cells in 1/10th CFZ concentrations for 24 h. The bolus-pulse regimen represents unformulated CFZ that is immediately available to the tumor upon intratumoral injection but rapidly diffuses to the circulation, whereas the low-extended regimen mimics the sustained release of CFZ from CFZ-pTA-alb over a prolonged period of time. Splenocytes freshly harvested from C57BL/6 mice were used as a surrogate for immune cells, as the spleen is the largest secondary lymphoid organ containing 25% of total lymphocytes^34, where B cells and T cells constitute 45-50% and 30-35%, respectively^35.
The cytotoxicity of CFZ was also measured on splenocytes. […] Cell viability was measured as described above.

BMDCs [3] = experiment: BMDC activation after coculture with pretreated B16F10 cells (CD40, CD86); assay type: cell-based, C57BL/6 mice; settings: B16F10 pretreated 24 h, 200 nM CFZ-equivalent
Protocol: Bone marrow cells were collected from healthy male C57BL/6 as reported previously^71. Mice at the age of 6-8 weeks were sacrificed using CO2 asphyxiation. Using a syringe, the cavities of femur bones were flushed with RPMI 1640 medium containing penicillin/streptomycin. The collected bone marrow was pipetted several times and passed through a 40 μm cell strainer to obtain single cell suspension. The cells were collected by centrifugation at 500 rcf for 8 min, treated with ACK buffer, rinsed, and suspended in IMDM medium supplemented with 10% FBS, penicillin/streptomycin, 20 ng/mL GM-CSF, and 10 mM β-mercaptoethanol at a density of 2×10^6 cells per 10 mL to differentiate into dendritic cells (DCs). Additional medium was supplemented three days later, and the floating and loosely adherent cells were collected by centrifugation on day 6. The DC phenotype was confirmed by CD11c staining. […] The stained cells were analyzed by flow cytometry (Accuri C6, BD Biosciences, San Jose, Calif., USA). Fluorescence-minus-one (FMO) controls were used for compensation and gating. The extent of phagocytosis was expressed as the percentage of DiI^+CD11c^+ cells per total CD11c^+ cells. The DC activation was assessed by CD11c^+CD40^+ or CD11c^+CD86^+ per total CD11c^+ cells.

## CC(C)C[C@H](NC(=O)[C@H](CCc1ccccc1)NC(=O)CN1CCOCC1)C(=O)N[C@@H](Cc1ccccc1)C(=O)N[C@@H](CC(C)C)C(=O)[C@@]1(C)CO1 [CFZ, Carfilzomib]
Plasma protein
  plasma protein binding: 97.6-98.2%
BMDCs [1]; 10 μM CFZ equivalent pretreatment 24 h, coculture 4 or 24 h
  BMDC uptake of DiI+ B16F10 cells vs untreated B16F10 cells: greater extents of DiI^+CD11c^+ cells per total CD11c^+ cells
BMDCs [1]; 4° C.
  BMDC uptake of pretreated B16F10 cells at 4° C.: diminished
BMDCs [1]; Pearson's correlation coefficient of signal colocalization
  BMDC uptake of DiI+ cells/fragments by confocal microscopy: increased
B16F10 cells
  sensitivity to bolus-pulse vs low-extended regimen: equally sensitive to the two regimens
[2]
  sensitivity to bolus-pulse vs low-extended regimen: less sensitive to the low-extended regimen than to the bolus-pulse regimen
BMDCs [3]
  CD40 expression on CD11c+ BMDCs: increased the expression of the two activation markers
  CD86 expression on CD11c+ BMDCs: increased the expression of the two activation markers
